# Source: US6914045B2, “Glycopeptide antibiotics” (Wyeth Holdings Corporation, priority 2001, dated 2005)
# Tests used:
# Enterococcus sp. = test: in vitro antibacterial evaluation, MIC by broth dilution; assay type: cell-based; conditions: broth dilution, 18 hours at 35° C.
# In short: (§1)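 Broth dilution per NCCLS standard M7-A2 in Muller-Hinton II […], with an inoculum of 5×10^5 CFU/mL and antibiotic spanning 64-0.06 μg/mL. The MIC is the lowest concentration that inhibits growth of the organism.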
# Staphylococcus sp. = test: as above; assay type: cell-based; conditions: broth dilution, 18 hours at 35° C.
# In short: as §1
# Streptococcus sp. = test: as above; assay type: cell-based; conditions: broth dilution, 18 hours at 35° C.
# In short: as §1
# [1] = test system: Staphylococcus aureus-SMITH (GC 4543); test: acute lethal infection in mice; assay type: in vivo; conditions: acute lethal infection, female CD-1 mice, intraperitoneal challenge, intravenous 30 min. after infection, 7 day survival
# In short: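 Female CD-1 mice (20±2 g) got an intraperitoneal bacterial challenge lethal to untreated controls within 24–48 hr. Compound was dosed intravenously 30 min after infection, five mice per dose. ED50 was calculated from 7-day survival pooled across 3 tests.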
# Escherichia coli = test: in vitro antibacterial evaluation, MIC by broth dilution; assay type: cell-based; conditions: 18 hours at 35° C.
smiles,measurement,setting,value
"CC(c1ccccc1)C1NC(=O)CNC(=O)C(CO)NC(=O)C(C(O)C2CNC(=N)N2C2OC(CO)C(O)C(O)C2O)NC(=O)C(C(O)C2CNC(=N)N2)NC(=O)C(Cc2ccc(OC3OC(CO)C(OC4OC(CO)C(OCc5ccc(OCc6ccccc6)cc5)C(O)C4O)C(O)C3O)cc2)NC1=O (stereo not drawn) [Example 231a, Cyclo[glycyl-β-methylphenylalanyl-O-[4-O-[4-O-[4-(phenylmethoxy)benzyl]hexopyranosyl]-hexopyranosyl]tyrosyl-3-(2-iminoimidazolidin-4-yl)seryl-3-(3-hexopyranosyl-2-iminoimidazolidin-4-yl)serylseryl]]",MIC Enterococcus avium (GC 4558),Enterococcus sp.,2 µg/mL
same,MIC Enterococcus faecalis (ATCC 29212),Enterococcus sp.,2 µg/mL
same,MIC Enterococcus faecalis (GC 2242),Enterococcus sp.,2 to 4 µg/mL
same,MIC Enterococcus faecalis (GC 2691),Enterococcus sp.,2 µg/mL
same,MIC Enterococcus faecalis (GC 3059),Enterococcus sp.,1 to 2 µg/mL
same,MIC Enterococcus faecalis (GC 4552),Enterococcus sp.,4 µg/mL
same,MIC Enterococcus faecalis (GC 4553),Enterococcus sp.,4 µg/mL
same,MIC Enterococcus faecalis (GC 4554),Enterococcus sp.,4 µg/mL
same,MIC Enterococcus faecalis (GC 6189),Enterococcus sp.,1 to 2 µg/mL
same,MIC Enterococcus faecium (GC 2243),Enterococcus sp.,2 µg/mL
same,MIC Enterococcus faecium (GC 4556),Enterococcus sp.,2 to 4 µg/mL
same,MIC Enterococcus faecium (GC 4557),Enterococcus sp.,2 µg/mL
same,MIC Enterococcus faecalis (ATCC 29212),"Enterococcus sp.; inoculum 5×10^5 CFU/mL, strain ATCC 29212",2 µg/mL
same,MIC Enterococcus faecalis (GC 2242),"Enterococcus sp.; inoculum 5×10^5 CFU/mL, strain GC 2242",2 to 4 µg/mL
same,MIC Enterococcus faecium (GC 2243),"Enterococcus sp.; inoculum 5×10^5 CFU/mL, strain GC 2243",2 µg/mL
same,MIC Enterococcus faecalis (GC 2691),"Enterococcus sp.; inoculum 5×10^5 CFU/mL, strain GC 2691",2 µg/mL
same,MIC Enterococcus faecalis (GC 3059),"Enterococcus sp.; inoculum 5×10^5 CFU/mL, strain GC 3059",1 to 2 µg/mL
same,MIC Enterococcus faecalis (GC 4552),"Enterococcus sp.; inoculum 5×10^5 CFU/mL, strain GC 4552",4 µg/mL
same,MIC Enterococcus faecalis (GC 4553),"Enterococcus sp.; inoculum 5×10^5 CFU/mL, strain GC 4553",4 µg/mL
same,MIC Enterococcus faecalis (GC 4554),"Enterococcus sp.; inoculum 5×10^5 CFU/mL, strain GC 4554",4 µg/mL
same,MIC Enterococcus faecium (GC 4556),"Enterococcus sp.; inoculum 5×10^5 CFU/mL, strain GC 4556",2 to 4 µg/mL
same,MIC Enterococcus faecium (GC 4557),"Enterococcus sp.; inoculum 5×10^5 CFU/mL, strain GC 4557",2 µg/mL
same,MIC Enterococcus avium (GC 4558),"Enterococcus sp.; inoculum 5×10^5 CFU/mL, strain GC 4558",2 µg/mL
same,MIC Enterococcus faecalis (GC 6189),"Enterococcus sp.; inoculum 5×10^5 CFU/mL, strain GC 6189",1 to 2 µg/mL
same,MIC Coagulase Negative Staphylococcus (GC 4547),Staphylococcus sp.,1 µg/mL
same,MIC Coagulase Negative Staphylococcus (GC 4548),Staphylococcus sp.,0.12 to 0.25 µg/mL
same,MIC Coagulase Negative Staphylococcus (GC 4549),Staphylococcus sp.,>0.12 to 0.25 µg/mL
same,MIC Coagulase Negative Staphylococcus (GC 4551),Staphylococcus sp.,0.5 µg/mL
same,MIC Coagulase Negative Staphylococcus (GC 6257),Staphylococcus sp.,0.5 µg/mL
same,MIC Staphylococcus aureus (ATCC 29213),Staphylococcus sp.,1 to 2 µg/mL
same,MIC Staphylococcus aureus (GC 1131),Staphylococcus sp.,1 to 2 µg/mL
same,MIC Staphylococcus aureus (GC 3051),Staphylococcus sp.,1 µg/mL
same,MIC Staphylococcus aureus (GC 3053),Staphylococcus sp.,1 to 2 µg/mL
same,MIC Staphylococcus aureus (GC 4541),Staphylococcus sp.,1 to 2 µg/mL
same,MIC Staphylococcus aureus (GC 4542),Staphylococcus sp.,0.5 to 1 µg/mL
same,MIC Staphylococcus aureus (GC 4544),Staphylococcus sp.,2 to 4 µg/mL
same,MIC Staphylococcus aureus (GC 4545),Staphylococcus sp.,1 to 2 µg/mL
same,MIC Staphylococcus aureus-SMITH (GC 4543),Staphylococcus sp.,1 µg/mL
same,MIC Staphylococcus haemolyticus (GC 4546),Staphylococcus sp.,1 µg/mL
same,MIC Staphylococcus aureus (ATCC 29213),Staphylococcus sp.; strain ATCC 29213,1 to 2 µg/mL
same,MIC Staphylococcus aureus (GC 1131),Staphylococcus sp.; strain GC 1131,1 to 2 µg/mL
same,MIC Staphylococcus aureus (GC 3051),Staphylococcus sp.; strain GC 3051,1 µg/mL
same,MIC Staphylococcus aureus (GC 3053),Staphylococcus sp.; strain GC 3053,1 to 2 µg/mL
same,MIC Staphylococcus aureus (GC 4541),Staphylococcus sp.; strain GC 4541,1 to 2 µg/mL
same,MIC Staphylococcus aureus (GC 4542),Staphylococcus sp.; strain GC 4542,0.5 to 1 µg/mL
same,MIC Staphylococcus aureus-SMITH (GC 4543),Staphylococcus sp.; strain GC 4543,1 µg/mL
same,MIC Staphylococcus aureus (GC 4544),Staphylococcus sp.; strain GC 4544,2 to 4 µg/mL
same,MIC Staphylococcus aureus (GC 4545),Staphylococcus sp.; strain GC 4545,1 to 2 µg/mL
same,MIC Staphylococcus haemolyticus (GC 4546),Staphylococcus sp.; strain GC 4546,1 µg/mL
same,MIC Coagulase Negative Staphylococcus (GC 4547),Staphylococcus sp.; strain GC 4547,1 µg/mL
same,MIC Coagulase Negative Staphylococcus (GC 4548),Staphylococcus sp.; strain GC 4548,0.12 to 0.25 µg/mL
same,MIC Coagulase Negative Staphylococcus (GC 4549),Staphylococcus sp.; strain GC 4549,<0.12 to 0.25 µg/mL
same,MIC Coagulase Negative Staphylococcus (GC 4551),Staphylococcus sp.; strain GC 4551,0.5 µg/mL
same,MIC Coagulase Negative Staphylococcus (GC 6257),Staphylococcus sp.; strain GC 6257,0.5 µg/mL
same,MIC Streptococcus agalactiae (GC 4564),Streptococcus sp.,<0.06 µg/mL
same,MIC Streptococcus pneumoniae (ATCC 6301),Streptococcus sp.,<0.06 µg/mL
same,MIC Streptococcus pneumoniae (GC 1894),Streptococcus sp.,<0.06 µg/mL
same,MIC Streptococcus pneumoniae (GC 4565),Streptococcus sp.,<0.06 µg/mL
same,MIC Streptococcus pyogenes (GC 4563),Streptococcus sp.,<0.06 µg/mL
same,MIC Streptococcus pneumoniae (ATCC 6301),"Streptococcus sp.; inoculum 5×10^5 CFU/mL, strain ATCC 6301",<0.06 µg/mL
same,MIC Streptococcus pneumoniae (GC 1894),"Streptococcus sp.; inoculum 5×10^5 CFU/mL, strain GC 1894",<0.06 µg/mL
same,MIC Streptococcus pyogenes (GC 4563),"Streptococcus sp.; inoculum 5×10^5 CFU/mL, strain GC 4563",<0.06 µg/mL
same,MIC Streptococcus agalactiae (GC 4564),"Streptococcus sp.; inoculum 5×10^5 CFU/mL, strain GC 4564",<0.06 µg/mL
same,MIC Streptococcus pneumoniae (GC 4565),"Streptococcus sp.; inoculum 5×10^5 CFU/mL, strain GC 4565",<0.06 µg/mL
same,"median effective dose (ED50), Staphylococcus aureus-SMITH (GC 4543)",[1],0.06 mg/kg
same,MIC Escherichia coli (ATCC 25922),Escherichia coli,32 to 64 µg/mL
same,MIC Escherichia coli (GC 4559),Escherichia coli,32 µg/mL
same,MIC Escherichia coli (GC 4560),Escherichia coli,0.5 to 2 µg/mL
